According to US20260356819A1, “OXOISOINDOLINYL-SUBSTITUTED […] DERIVATIVE AND USE THEREOF” (GLUETACS THERAPEUTICS (SHANGHAI) CO., LTD., priority 2023, published 2026):

What was measured:
Assay type in all cases: cell-based
Settings in all cases: compounds at 50 nM and 500 nM
WEE1 = biological target: T1, WEE1 (Homo sapiens, UniProt P30291+Q96SW2); assay: Western blot degradation of WEE1 in hPBMCs (24 h)
T1 construct: The supernatant was aspirated as the extracted total cell protein; endogenous in cells; host or cells: human peripheral blood mononuclear cells (hPBMCs)
Outline: (§1)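 Compounds were tested at 50 nM and 500 nM on hPBMCs (1×10^6 cells/mL) for 24 h, alongside DMSO. Proteins were detected by Western blot after denaturation at 95 °C; remaining protein computed from normalised band grayscale.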

IKZF1 = biological target: T2, IKZF1 (Homo sapiens, UniProt Q13422+Q96SW2); assay: Western blot degradation of IKZF1 in hPBMCs (24 h)
T2 construct: The supernatant was aspirated as the extracted total cell protein; endogenous in cells; host or cells: human peripheral blood mononuclear cells (hPBMCs)
Outline: as §1

IKZF2 = biological target: T3, IKZF2 (Homo sapiens, UniProt Q96SW2+Q9UKS7); assay: Western blot degradation of IKZF2 in hPBMCs (24 h)
T3 construct: The supernatant was aspirated as the extracted total cell protein; endogenous in cells; host or cells: human peripheral blood mononuclear cells (hPBMCs)
Outline: as §1

IKZF3 = biological target: T4, IKZF3 (Homo sapiens, UniProt Q96SW2+Q9UKT9); assay: Western blot degradation of IKZF3 in hPBMCs (24 h)
T4 construct: The supernatant was aspirated as the extracted total cell protein; endogenous in cells; host or cells: human peripheral blood mononuclear cells (hPBMCs)
Outline: as §1

CK1α = biological target: T5, CK1α (Homo sapiens, UniProt P48729+Q96SW2); assay: Western blot degradation of CK1α in hPBMCs (24 h)
T5 construct: The supernatant was aspirated as the extracted total cell protein; endogenous in cells; host or cells: human peripheral blood mononuclear cells (hPBMCs)
Outline: as §1

GSPT1 = biological target: T6, GSPT1 (Homo sapiens, UniProt P15170+Q96SW2); assay: Western blot degradation of GSPT1 in hPBMCs (24 h)
T6 construct: The supernatant was aspirated as the extracted total cell protein; endogenous in cells; host or cells: human peripheral blood mononuclear cells (hPBMCs)
Outline: as §1

T5 sequence (P48729 whole entry): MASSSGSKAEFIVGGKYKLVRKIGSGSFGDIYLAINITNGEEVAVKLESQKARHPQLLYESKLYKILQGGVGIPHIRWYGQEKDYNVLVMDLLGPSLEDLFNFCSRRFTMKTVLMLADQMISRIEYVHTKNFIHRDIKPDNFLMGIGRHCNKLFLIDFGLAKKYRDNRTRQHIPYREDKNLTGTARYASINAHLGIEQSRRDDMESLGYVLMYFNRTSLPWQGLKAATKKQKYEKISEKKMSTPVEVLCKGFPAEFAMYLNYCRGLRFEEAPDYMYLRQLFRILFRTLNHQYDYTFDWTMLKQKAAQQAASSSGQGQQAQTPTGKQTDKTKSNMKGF
T5 sequence (Q96SW2 whole entry): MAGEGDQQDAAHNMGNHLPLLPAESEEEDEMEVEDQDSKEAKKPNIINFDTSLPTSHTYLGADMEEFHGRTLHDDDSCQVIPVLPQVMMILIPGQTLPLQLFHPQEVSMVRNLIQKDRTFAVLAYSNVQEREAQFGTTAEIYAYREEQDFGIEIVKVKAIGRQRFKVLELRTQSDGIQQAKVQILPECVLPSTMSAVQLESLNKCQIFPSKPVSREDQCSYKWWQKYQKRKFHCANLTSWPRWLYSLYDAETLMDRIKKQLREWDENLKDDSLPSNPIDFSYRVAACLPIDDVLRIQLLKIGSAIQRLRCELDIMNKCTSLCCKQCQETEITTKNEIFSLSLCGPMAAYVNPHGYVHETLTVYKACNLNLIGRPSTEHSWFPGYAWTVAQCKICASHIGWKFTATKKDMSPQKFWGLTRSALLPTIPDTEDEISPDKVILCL
T5 sequence (Q16531 whole entry partner): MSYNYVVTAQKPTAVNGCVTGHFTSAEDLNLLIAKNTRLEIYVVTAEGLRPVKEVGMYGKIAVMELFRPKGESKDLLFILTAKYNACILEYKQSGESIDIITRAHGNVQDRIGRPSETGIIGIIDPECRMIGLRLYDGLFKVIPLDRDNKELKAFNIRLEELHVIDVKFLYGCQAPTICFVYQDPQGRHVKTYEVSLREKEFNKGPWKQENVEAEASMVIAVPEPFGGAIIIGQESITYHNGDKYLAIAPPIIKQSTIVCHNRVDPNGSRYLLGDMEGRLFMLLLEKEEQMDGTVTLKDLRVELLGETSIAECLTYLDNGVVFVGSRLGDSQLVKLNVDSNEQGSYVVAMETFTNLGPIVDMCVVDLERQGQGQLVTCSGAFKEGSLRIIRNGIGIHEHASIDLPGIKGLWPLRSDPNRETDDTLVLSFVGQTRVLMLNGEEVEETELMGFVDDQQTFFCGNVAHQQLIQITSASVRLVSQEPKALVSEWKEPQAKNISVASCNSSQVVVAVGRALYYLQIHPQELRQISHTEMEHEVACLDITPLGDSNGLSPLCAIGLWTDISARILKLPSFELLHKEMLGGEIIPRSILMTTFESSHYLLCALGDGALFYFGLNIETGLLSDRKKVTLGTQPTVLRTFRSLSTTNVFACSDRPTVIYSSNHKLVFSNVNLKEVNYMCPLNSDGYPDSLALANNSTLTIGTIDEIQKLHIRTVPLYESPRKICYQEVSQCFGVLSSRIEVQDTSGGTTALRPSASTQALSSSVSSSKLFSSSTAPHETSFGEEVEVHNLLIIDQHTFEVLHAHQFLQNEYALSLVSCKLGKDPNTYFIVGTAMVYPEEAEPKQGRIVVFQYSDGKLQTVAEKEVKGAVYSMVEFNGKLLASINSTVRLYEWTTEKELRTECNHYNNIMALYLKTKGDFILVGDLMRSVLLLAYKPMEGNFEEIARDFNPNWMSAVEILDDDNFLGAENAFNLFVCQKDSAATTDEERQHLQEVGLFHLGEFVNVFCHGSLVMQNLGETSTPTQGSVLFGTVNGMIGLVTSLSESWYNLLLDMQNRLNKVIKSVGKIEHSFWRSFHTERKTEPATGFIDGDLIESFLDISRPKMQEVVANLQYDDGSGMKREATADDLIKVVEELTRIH
T1 sequence (P30291 whole entry): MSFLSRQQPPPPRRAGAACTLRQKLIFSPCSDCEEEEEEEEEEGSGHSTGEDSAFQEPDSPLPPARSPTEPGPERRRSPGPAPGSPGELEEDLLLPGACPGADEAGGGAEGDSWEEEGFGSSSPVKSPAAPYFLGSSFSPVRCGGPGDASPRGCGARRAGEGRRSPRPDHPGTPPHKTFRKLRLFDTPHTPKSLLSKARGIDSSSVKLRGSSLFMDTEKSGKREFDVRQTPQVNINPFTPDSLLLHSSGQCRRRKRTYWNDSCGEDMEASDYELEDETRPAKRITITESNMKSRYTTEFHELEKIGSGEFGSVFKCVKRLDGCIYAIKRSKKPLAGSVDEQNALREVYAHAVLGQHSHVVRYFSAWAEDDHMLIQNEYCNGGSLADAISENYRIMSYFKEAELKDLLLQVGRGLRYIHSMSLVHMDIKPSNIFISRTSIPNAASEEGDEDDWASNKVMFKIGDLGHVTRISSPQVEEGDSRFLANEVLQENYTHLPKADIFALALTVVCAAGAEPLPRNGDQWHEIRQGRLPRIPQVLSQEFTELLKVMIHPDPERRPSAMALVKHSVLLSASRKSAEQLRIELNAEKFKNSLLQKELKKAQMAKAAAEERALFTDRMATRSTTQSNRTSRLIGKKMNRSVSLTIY
T1 sequence (Q96SW2 whole entry): as the sequence (Q96SW2 whole entry) above
T1 sequence (Q16531 whole entry partner): as the sequence (Q16531 whole entry partner) above
T3 sequence (Q9UKS7 whole entry): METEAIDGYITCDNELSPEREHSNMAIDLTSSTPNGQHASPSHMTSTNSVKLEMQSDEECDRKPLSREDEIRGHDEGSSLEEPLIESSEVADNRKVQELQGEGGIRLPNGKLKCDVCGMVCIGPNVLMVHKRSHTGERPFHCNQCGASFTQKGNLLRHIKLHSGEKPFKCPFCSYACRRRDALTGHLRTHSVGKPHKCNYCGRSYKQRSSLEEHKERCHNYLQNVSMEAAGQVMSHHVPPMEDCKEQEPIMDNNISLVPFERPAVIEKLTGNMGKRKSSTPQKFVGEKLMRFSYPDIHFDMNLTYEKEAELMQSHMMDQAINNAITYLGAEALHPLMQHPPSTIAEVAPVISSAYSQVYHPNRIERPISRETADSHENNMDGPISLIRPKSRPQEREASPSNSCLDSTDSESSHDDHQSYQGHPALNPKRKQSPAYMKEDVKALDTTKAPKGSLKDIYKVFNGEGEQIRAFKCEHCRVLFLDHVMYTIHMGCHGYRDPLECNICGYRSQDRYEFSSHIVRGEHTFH
T3 sequence (Q96SW2 whole entry): as the sequence (Q96SW2 whole entry) above
T3 sequence (Q16531 whole entry partner): as the sequence (Q16531 whole entry partner) above
T4 sequence (Q9UKT9 whole entry): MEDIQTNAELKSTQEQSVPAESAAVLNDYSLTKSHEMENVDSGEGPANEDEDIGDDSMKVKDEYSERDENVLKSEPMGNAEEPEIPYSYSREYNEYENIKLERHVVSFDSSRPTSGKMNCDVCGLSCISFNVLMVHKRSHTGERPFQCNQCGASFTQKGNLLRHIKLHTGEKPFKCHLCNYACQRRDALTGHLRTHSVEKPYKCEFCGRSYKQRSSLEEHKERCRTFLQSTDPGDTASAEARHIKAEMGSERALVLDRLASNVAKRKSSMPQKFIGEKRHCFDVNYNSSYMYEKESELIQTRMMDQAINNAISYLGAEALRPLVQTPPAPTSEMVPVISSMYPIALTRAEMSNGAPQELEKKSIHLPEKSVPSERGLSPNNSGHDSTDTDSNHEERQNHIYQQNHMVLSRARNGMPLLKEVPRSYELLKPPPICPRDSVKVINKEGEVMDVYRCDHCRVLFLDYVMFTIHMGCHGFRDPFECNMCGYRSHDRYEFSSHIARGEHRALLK
T4 sequence (Q96SW2 whole entry): as the sequence (Q96SW2 whole entry) above
T4 sequence (Q16531 whole entry partner): as the sequence (Q16531 whole entry partner) above
T6 sequence (P15170 whole entry): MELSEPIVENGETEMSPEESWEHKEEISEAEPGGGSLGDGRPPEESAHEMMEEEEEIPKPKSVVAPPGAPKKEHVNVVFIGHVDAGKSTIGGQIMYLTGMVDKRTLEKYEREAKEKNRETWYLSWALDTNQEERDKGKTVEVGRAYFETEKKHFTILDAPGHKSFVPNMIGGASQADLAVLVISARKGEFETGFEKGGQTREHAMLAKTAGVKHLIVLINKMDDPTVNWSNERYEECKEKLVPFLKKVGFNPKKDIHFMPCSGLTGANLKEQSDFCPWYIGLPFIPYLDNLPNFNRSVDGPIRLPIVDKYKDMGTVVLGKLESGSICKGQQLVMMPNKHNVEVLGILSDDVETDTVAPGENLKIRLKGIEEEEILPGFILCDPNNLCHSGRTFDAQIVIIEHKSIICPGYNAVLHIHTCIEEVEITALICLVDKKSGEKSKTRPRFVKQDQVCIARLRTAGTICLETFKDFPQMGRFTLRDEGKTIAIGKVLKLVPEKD
T6 sequence (Q96SW2 whole entry): as the sequence (Q96SW2 whole entry) above
T6 sequence (Q16531 whole entry partner): as the sequence (Q16531 whole entry partner) above

Compound | WEE1 substrate protein remaining % (WEE1) | IKZF1 substrate protein remaining % (IKZF1) | IKZF2 substrate protein remaining % (IKZF2) | IKZF3 substrate protein remaining % (IKZF3) | CK1α substrate protein remaining % (CK1α) | GSPT1 substrate protein remaining % (GSPT1)
O=C1CCN(N2Cc3cc(CN4CCC(c5ccon5)CC4)ccc3C2=O)C(=O)N1 [GT-07495, 1-(5-((4-(isoxazol-3-yl)piperidin-1-yl)methyl)-1-oxoisoindolin-2-yl)dihydropyrimidine-2,4(1H,3H)-dione] | B (80%< substrate protein remaining % ≤100%) | B (80%< substrate protein remaining % ≤100%) | B (80%< substrate protein remaining % ≤100%) | B (80%< substrate protein remaining % ≤100%) | A (0% ≤ substrate protein remaining % ≤80%) | A (0% ≤ substrate protein remaining % ≤80%)
O=C1CCN(N2C(=O)c3ccc(CN4CC=C(c5c[nH]c6ncccc56)CC4)cc3C2=O)C(=O)N1 [GT-05181, 5-((4-(1H-pyrrolo[2,3-b]pyridin-3-yl)-3,6-dihydropyridin-1(2H)-yl)methyl)-2-(2,4-dioxotetrahydropyrimidin-1(2H)-yl)isoindoline-1,3-dione] | A (0% ≤ substrate protein remaining % ≤80%) | B (80%< substrate protein remaining % ≤100%) | B (80%< substrate protein remaining % ≤100%) | B (80%< substrate protein remaining % ≤100%) | B (80%< substrate protein remaining % ≤100%) | B (80%< substrate protein remaining % ≤100%)
O=C1CCN(N2C(=O)c3ccc(CN4CCC(c5noc6ccccc56)CC4)cc3C2=O)C(=O)N1 [GT-07522, 5-((4-(benzo[d]isoxazol-3-yl)piperidin-1-yl)methyl)-2-(2,4-dioxotetrahydropyrimidin-1(2H)-yl)isoindoline-1,3-dione] | A (0% ≤ substrate protein remaining % ≤80%) | A (0% ≤ substrate protein remaining % ≤80%) | A (0% ≤ substrate protein remaining % ≤80%) | B (80%< substrate protein remaining % ≤100%) | A (0% ≤ substrate protein remaining % ≤80%) | A (0% ≤ substrate protein remaining % ≤80%)
Cc1ccc(N2CCN(Cc3ccc4c(c3)CN(N3CCC(=O)NC3=O)C4=O)CC2)cc1 [GT-06771, 1-(1-oxo-5-((4-(p-tolyl)piperazin-1-yl)methyl)isoindolin-2-yl)dihydropyrimidine-2,4(1H,3H)-dione] | A (0% ≤ substrate protein remaining % ≤80%) | B (80%< substrate protein remaining % ≤100%) | A (0% ≤ substrate protein remaining % ≤80%) | A (0% ≤ substrate protein remaining % ≤80%) | A (0% ≤ substrate protein remaining % ≤80%) | A (0% ≤ substrate protein remaining % ≤80%)
O=C1CCN(N2C(=O)c3ccc(CN4CCN(c5ccnc(Cl)c5Br)CC4)cc3C2=O)C(=O)N1 [GT-07168, 5-((4-(3-bromo-2-chloropyridin-4-yl)piperazin-1-yl)methyl)-2-(2,4-dioxotetrahydropyrimidin-1(2H)-yl)isoindoline-1,3-dione] | B (80%< substrate protein remaining % ≤100%) | B (80%< substrate protein remaining % ≤100%) | A (0% ≤ substrate protein remaining % ≤80%) | B (80%< substrate protein remaining % ≤100%) | B (80%< substrate protein remaining % ≤100%) | A (0% ≤ substrate protein remaining % ≤80%)
O=C1CCN(N2C(=O)c3ccc(CN4CCC(N5C(=O)COc6cc(F)ccc65)CC4)cc3C2=O)C(=O)N1 [GT-07683, 2-(2,4-dioxotetrahydropyrimidin-1(2H)-yl)-5-((4-(7-fluoro-3-oxo-2,3-dihydro-4H-benzo[b][1,4]oxazin-4-yl)piperidin-1-yl)methyl)isoindoline-1,3-dione] | B (80%< substrate protein remaining % ≤100%) | B (80%< substrate protein remaining % ≤100%) | B (80%< substrate protein remaining % ≤100%) | B (80%< substrate protein remaining % ≤100%) | B (80%< substrate protein remaining % ≤100%) | A (0% ≤ substrate protein remaining % ≤80%)
CC1(C)CCC(CN2C3CC2CN(Cc2ccc4c(c2)C(=O)N(N2CCC(=O)NC2=O)C4=O)C3)=C(c2ccc(Cl)cc2)C1 [GT-06459, 5-((6-((4′-chloro-5,5-dimethyl-3,4,5,6-tetrahydro-[1,1′-biphenyl]-2-yl)methyl)-3,6-diazabicyclo[3.1.1]heptan-3-yl)methyl)-2-(2,4-dioxotetrahydropyrimidin-1(2H)-yl)isoindoline-1,3-dione] | A (0% ≤ substrate protein remaining % ≤80%) | A (0% ≤ substrate protein remaining % ≤80%) | A (0% ≤ substrate protein remaining % ≤80%) | A (0% ≤ substrate protein remaining % ≤80%) | A (0% ≤ substrate protein remaining % ≤80%) | A (0% ≤ substrate protein remaining % ≤80%)
O=C1CCN(N2Cc3cc(CN4CC=C(c5ncnc6sccc56)CC4)ccc3C2=O)C(=O)N1 [GT-08116, 1-(1-oxo-5-((4-(thieno[2,3-d]pyrimidin-4-yl)-3,6-dihydropyridin-1(2H)-yl)methyl)isoindolin-2-yl)dihydropyrimidine-2,4(1H,3H)-dione] | A (0% ≤ substrate protein remaining % ≤80%) | A (0% ≤ substrate protein remaining % ≤80%) | B (80%< substrate protein remaining % ≤100%) | A (0% ≤ substrate protein remaining % ≤80%) | A (0% ≤ substrate protein remaining % ≤80%) | A (0% ≤ substrate protein remaining % ≤80%)
O=C1CCN(N2Cc3cc(CN4CCN(c5ncnc6sc(Br)cc56)CC4)ccc3C2=O)C(=O)N1 [GT-08063, 1-(5-((4-(6-bromothieno[2,3-d]pyrimidin-4-yl)piperazin-1-yl)methyl)-1-oxoisoindolin-2-yl)dihydropyrimidine-2,4(1H,3H)-dione] | B (80%< substrate protein remaining % ≤100%) | B (80%< substrate protein remaining % ≤100%) | A (0% ≤ substrate protein remaining % ≤80%) | A (0% ≤ substrate protein remaining % ≤80%) | B (80%< substrate protein remaining % ≤100%) | B (80%< substrate protein remaining % ≤100%)
